Patent publication US20080139387A1, “Fungicidal Mixtures” (BASF Aktiengesellschaft, priority 2004, published 2008)

Test system: Cochliobolus miyabeanus
Experiment: Activity against brown spot of rice caused by Cochliobolus miyabeanus, protective application
Format: in vivo
Details: individual active compound, rice seedlings, rated after six days
Protocol: The active compounds, separately or jointly, were prepared as a stock solution comprising 0.25% by weight of active compound in acetone or DMSO. 1% by weight of the emulsifier Uniperol® EL (wetting agent having emulsifying and dispersing action based on ethoxylated alkylphenols) was added to this solution, and the mixture was appropriately diluted with water to the desired concentration.
Use example—Activity against brown spot of rice caused by Cochliobolus miyabeanus, protective application Leaves of rice seedlings of the cultivar “Tai-Nong 67” which had been grown in pots were sprayed to runoff point with an aqueous suspension having the concentration of active compound stated below. The next day, the plants were inoculated with an aqueous spore suspension of Cochliobolus miyabeanus. The test plants were then placed in climatized chambers at 22-24° C. and 95-99% relative atmospheric humidity for six days. The extent of the development of infection on the leaves was then determined visually.
Evaluation is carried out by determining the infected leaf areas in percent. These percentages were converted into efficacies.
The efficacy (E) is calculated as follows using Abbot's formula: […]
α corresponds to the fungal infection of the treated plants in % and β corresponds to the fungal infection of the untreated (control) plants in % An efficacy of 0 means that the infection level of the treated plants corresponds to that of the untreated control plants; an efficacy of 100 means that the treated plants are not infected.
The expected efficacies of the mixtures of active compounds are determined using Colby's formula [R. S. Colby, Weeds, 15, 20-22 (1967)] and are compared with the observed efficacies.
E expected efficacy, expressed in % of the untreated control, when using the mixture of the active compounds A and B at the concentrations a and b x efficacy, expressed in % of the untreated control, when using active compound A at the concentration a y efficacy, expressed in % of the untreated control, when using active compound B at the concentration b

SMILES	Efficacy in % of the untreated control (1 ppm in the spray liquor) [%]	Efficacy in % of the untreated control (4 ppm in the spray liquor) [%]	Efficacy in % of the untreated control (16 ppm in the spray liquor) [%]
CCCCCCCCCCCCCN1CC(C)OC(C)C1 (stereo not shown) [II (tridemorph), tridemorph]	0	0	9
CC1CCN(c2c(-c3c(F)cc(F)cc3F)c(Cl)nc3ncnn23)CC1 [I, 5-chloro-7-(4-methylpiperidin-1-yl)-6-(2,4,6-trifluorophenyl)-[1,2,4]tri-azolo[1,5-a]pyrimidine]	–	32	–
